# Columns and labels:
# [1] = molecular target: Tyrosine-protein kinase ABL1 (Homo sapiens) (UniProt P00519)
# [2] = system: Serine/threonine-protein kinase B-raf (Homo sapiens), P15056 [V600E]
# [3] = molecular target: Calcium/calmodulin-dependent protein kinase type II subunit beta (Homo sapiens) (UniProt Q13554)
# [4] = molecular target: Cyclin-dependent kinase 2 (Homo sapiens, UniProt P24941)
# [5] = molecular target: Casein kinase I isoform epsilon (Homo sapiens) (UniProt P49674)
# [6] = molecular target: Serine/threonine-protein kinase 17B (Homo sapiens) (UniProt O94768)
# [7] = molecular target: Dual specificity tyrosine-phosphorylation-regulated kinase 1B (Homo sapiens) (UniProt Q9Y463)
# [8] = system: Epidermal growth factor receptor (Homo sapiens), P00533 [G719C]
# [9] = system: Epidermal growth factor receptor (Homo sapiens), P00533 [L858R]
# [10] = molecular target: Mitogen-activated protein kinase 1 (Homo sapiens, UniProt P28482)
# [11] = molecular target: Mitogen-activated protein kinase 6 (Homo sapiens) (UniProt Q16659)
# [12] = molecular target: Mitogen-activated protein kinase 4 (Homo sapiens) (UniProt P31152)
# [13] = molecular target: Tyrosine-protein kinase Fer (Homo sapiens) (UniProt P16591)
# [14] = molecular target: Fibroblast growth factor receptor 4 (Homo sapiens) (UniProt P22455)
# Fibroblast growth factor receptor 4 (Homo sapiens), sequence (P22455 22-802 limits assumed): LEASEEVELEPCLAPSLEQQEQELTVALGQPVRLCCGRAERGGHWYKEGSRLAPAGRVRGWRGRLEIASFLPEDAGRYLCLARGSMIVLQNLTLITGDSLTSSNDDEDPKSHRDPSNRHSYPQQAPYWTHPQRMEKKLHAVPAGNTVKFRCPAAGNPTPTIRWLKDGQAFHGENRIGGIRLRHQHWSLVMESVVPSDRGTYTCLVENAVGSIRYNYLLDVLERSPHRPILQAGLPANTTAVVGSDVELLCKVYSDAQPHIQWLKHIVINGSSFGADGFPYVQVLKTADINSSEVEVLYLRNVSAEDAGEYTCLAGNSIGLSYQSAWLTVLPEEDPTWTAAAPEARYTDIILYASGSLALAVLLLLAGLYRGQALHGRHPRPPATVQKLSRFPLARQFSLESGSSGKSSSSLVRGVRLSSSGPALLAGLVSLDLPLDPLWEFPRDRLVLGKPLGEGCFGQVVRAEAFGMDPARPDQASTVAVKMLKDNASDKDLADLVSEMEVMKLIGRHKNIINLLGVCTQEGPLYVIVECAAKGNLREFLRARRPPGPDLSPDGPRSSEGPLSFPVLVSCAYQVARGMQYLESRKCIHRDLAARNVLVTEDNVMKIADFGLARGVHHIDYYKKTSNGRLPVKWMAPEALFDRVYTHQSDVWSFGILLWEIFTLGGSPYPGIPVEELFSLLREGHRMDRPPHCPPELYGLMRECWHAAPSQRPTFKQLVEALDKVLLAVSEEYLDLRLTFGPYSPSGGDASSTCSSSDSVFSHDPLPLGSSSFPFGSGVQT
# [15] = molecular target: Receptor-type tyrosine-protein kinase FLT3 (Homo sapiens) (UniProt P36888)
# [16] = system: eIF-2-alpha kinase GCN2 (Homo sapiens), Q9P2K8 [S808G]
# [17] = molecular target: G protein-coupled receptor kinase 4 (Homo sapiens) (UniProt P32298)
# [18] = molecular target: Glycogen synthase kinase-3 alpha (Homo sapiens, UniProt P49840)
# [19] = molecular target: Homeodomain-interacting protein kinase 2 (Homo sapiens) (UniProt Q9H2X6)
# [20] = molecular target: Mitogen-activated protein kinase 9 (Homo sapiens) (UniProt P45984)
# [21] = molecular target: Mast/stem cell growth factor receptor Kit (Homo sapiens) (UniProt P10721)
# [22] = molecular target: Tyrosine-protein kinase Lyn (Homo sapiens) (UniProt P07948)
# [23] = system: Hepatocyte growth factor receptor (Homo sapiens), P08581 [Y1235D]
# [24] = molecular target: Myosin light chain kinase 2, skeletal/cardiac muscle (Homo sapiens) (UniProt Q9H1R3)
# [25] = molecular target: Serine/threonine-protein kinase Nek5 (Homo sapiens) (UniProt Q6P3R8)
# [26] = molecular target: Serine/threonine-protein kinase PAK 5 (Homo sapiens) (UniProt Q9P286)
# Serine/threonine-protein kinase PAK 5 (Homo sapiens), sequence (Q9P286 whole entry, looked up): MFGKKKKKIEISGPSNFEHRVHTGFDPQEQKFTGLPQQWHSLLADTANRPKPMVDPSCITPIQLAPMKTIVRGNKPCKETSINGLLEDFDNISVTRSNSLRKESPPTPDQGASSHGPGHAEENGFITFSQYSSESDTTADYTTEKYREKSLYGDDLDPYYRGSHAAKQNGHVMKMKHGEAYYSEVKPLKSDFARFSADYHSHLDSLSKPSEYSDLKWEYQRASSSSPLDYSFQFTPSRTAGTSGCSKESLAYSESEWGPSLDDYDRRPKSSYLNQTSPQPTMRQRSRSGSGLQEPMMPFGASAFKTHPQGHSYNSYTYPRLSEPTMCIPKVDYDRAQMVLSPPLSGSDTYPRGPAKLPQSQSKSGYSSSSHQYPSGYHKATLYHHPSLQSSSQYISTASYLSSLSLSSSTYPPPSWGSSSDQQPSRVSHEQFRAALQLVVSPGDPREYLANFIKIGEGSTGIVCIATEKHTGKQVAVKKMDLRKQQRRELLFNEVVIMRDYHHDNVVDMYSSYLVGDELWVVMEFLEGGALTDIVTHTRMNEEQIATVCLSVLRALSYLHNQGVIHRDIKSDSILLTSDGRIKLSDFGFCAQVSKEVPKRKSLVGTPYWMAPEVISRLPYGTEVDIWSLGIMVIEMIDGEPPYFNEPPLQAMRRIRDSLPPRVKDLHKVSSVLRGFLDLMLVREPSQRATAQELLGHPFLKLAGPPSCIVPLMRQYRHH
# [27] = molecular target: 3-phosphoinositide-dependent protein kinase 1 (Homo sapiens) (UniProt O15530)
# 3-phosphoinositide-dependent protein kinase 1 (Homo sapiens), sequence (O15530 whole entry, canonical isoform): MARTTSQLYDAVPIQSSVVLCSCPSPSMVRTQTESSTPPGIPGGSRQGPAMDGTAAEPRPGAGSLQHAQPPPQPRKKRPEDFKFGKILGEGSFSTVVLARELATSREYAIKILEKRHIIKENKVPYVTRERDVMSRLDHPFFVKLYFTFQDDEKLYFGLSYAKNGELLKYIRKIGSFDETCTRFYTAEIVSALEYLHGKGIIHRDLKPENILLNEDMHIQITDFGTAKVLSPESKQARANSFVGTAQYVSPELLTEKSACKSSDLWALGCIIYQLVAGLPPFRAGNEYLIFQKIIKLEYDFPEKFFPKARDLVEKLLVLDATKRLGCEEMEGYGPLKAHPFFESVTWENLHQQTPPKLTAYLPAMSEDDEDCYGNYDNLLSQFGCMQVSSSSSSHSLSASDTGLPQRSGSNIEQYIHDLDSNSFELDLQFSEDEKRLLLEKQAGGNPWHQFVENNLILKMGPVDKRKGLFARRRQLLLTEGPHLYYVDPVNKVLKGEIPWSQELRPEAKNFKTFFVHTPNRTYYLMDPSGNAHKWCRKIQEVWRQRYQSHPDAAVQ
# [28] = molecular target: Phosphorylase b kinase regulatory subunit alpha, liver isoform (Homo sapiens) (UniProt P46019)
# Phosphorylase b kinase regulatory subunit alpha, liver isoform (Homo sapiens), sequence (P46019 whole entry, canonical isoform): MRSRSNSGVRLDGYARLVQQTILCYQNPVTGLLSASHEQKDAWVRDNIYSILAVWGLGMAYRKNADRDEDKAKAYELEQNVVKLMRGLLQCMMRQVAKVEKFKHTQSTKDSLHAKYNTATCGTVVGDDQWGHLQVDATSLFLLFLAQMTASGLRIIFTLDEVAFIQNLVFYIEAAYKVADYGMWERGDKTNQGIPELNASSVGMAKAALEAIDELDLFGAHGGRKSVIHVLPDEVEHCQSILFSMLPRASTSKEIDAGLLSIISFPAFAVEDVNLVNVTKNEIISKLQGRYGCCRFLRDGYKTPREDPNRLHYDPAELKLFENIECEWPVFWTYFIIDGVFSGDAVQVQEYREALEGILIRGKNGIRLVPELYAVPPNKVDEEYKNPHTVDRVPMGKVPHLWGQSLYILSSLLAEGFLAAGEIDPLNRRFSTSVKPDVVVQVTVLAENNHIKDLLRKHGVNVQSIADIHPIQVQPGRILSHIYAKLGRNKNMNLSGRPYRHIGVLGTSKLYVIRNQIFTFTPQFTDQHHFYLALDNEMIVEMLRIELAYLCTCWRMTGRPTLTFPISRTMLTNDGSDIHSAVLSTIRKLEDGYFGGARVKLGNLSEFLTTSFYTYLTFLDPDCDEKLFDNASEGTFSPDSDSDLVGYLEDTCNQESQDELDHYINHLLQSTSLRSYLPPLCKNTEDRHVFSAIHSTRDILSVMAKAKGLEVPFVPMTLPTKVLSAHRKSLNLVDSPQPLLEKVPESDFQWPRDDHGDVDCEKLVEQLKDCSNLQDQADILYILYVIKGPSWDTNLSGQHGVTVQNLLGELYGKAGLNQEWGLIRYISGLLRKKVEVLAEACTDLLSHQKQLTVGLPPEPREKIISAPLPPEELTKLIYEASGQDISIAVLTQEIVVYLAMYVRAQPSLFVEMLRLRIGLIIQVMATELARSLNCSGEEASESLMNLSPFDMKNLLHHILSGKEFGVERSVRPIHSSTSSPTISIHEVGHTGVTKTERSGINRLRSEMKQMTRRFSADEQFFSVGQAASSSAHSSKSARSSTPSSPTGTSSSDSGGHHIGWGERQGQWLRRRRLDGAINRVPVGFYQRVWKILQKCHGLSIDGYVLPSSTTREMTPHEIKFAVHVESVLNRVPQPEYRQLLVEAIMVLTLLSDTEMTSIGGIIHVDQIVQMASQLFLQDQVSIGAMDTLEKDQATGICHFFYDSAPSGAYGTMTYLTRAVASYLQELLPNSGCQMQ
# [29] = molecular target: Phosphatidylinositol 5-phosphate 4-kinase type-2 gamma (Homo sapiens) (UniProt Q8TBX8)
# [30] = molecular target: cAMP-dependent protein kinase catalytic subunit beta (Homo sapiens) (UniProt P22694)
# [31] = molecular target: Protein kinase C epsilon type (Homo sapiens) (UniProt Q02156)
# [32] = molecular target: Protein-tyrosine kinase 2-beta (Homo sapiens) (UniProt Q14289)
# [33] = molecular target: Proto-oncogene tyrosine-protein kinase receptor Ret (Homo sapiens) (UniProt P07949)
# [34] = system: Proto-oncogene tyrosine-protein kinase receptor Ret (Homo sapiens), P07949 [V804L]
# [35] = molecular target: Dual serine/threonine and tyrosine protein kinase (Homo sapiens) (UniProt Q6XUX3)
# [36] = molecular target: Serine/threonine-protein kinase Sgk1 (Homo sapiens) (UniProt O00141)
# [37] = molecular target: Serine/threonine-protein kinase SIK2 (Homo sapiens) (UniProt Q9H0K1)
# [38] = molecular target: Serine/threonine-protein kinase 35 (Homo sapiens) (UniProt Q8TDR2)
# Serine/threonine-protein kinase 35 (Homo sapiens), sequence (Q8TDR2 whole entry): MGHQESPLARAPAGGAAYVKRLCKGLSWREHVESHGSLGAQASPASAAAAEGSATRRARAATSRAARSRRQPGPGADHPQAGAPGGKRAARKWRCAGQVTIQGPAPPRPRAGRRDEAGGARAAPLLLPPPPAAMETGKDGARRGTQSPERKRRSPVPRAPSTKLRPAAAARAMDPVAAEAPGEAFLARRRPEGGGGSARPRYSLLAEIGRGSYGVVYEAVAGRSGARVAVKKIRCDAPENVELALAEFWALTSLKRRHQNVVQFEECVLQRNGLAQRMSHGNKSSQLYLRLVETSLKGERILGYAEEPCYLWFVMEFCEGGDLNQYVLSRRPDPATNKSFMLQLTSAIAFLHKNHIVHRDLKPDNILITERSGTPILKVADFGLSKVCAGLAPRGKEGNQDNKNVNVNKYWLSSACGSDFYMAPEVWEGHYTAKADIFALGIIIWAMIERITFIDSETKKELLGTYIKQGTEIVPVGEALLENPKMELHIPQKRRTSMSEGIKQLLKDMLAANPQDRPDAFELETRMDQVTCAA
# [39] = molecular target: Serine/threonine-protein kinase 36 (Homo sapiens) (UniProt Q9NRP7)
# [40] = molecular target: Serine/threonine-protein kinase TAO3 (Homo sapiens) (UniProt Q9H2K8)
# [41] = molecular target: Tyrosine-protein kinase receptor Tie-1 (Homo sapiens) (UniProt P35590)
# [42] = molecular target: Testis-specific serine/threonine-protein kinase 1 (Homo sapiens) (UniProt Q9BXA7)
# [43] = molecular target: Serine/threonine-protein kinase WNK1 (Homo sapiens) (UniProt Q9H4A3)
# [44] = molecular target: Serine/threonine-protein kinase 32C (Homo sapiens) (UniProt Q86UX6)
# [45] = molecular target: D(4) dopamine receptor (Homo sapiens) (UniProt P21917); details: Compound concentration 10.0 uM
# D(4) dopamine receptor (Homo sapiens), sequence (P21917 whole entry): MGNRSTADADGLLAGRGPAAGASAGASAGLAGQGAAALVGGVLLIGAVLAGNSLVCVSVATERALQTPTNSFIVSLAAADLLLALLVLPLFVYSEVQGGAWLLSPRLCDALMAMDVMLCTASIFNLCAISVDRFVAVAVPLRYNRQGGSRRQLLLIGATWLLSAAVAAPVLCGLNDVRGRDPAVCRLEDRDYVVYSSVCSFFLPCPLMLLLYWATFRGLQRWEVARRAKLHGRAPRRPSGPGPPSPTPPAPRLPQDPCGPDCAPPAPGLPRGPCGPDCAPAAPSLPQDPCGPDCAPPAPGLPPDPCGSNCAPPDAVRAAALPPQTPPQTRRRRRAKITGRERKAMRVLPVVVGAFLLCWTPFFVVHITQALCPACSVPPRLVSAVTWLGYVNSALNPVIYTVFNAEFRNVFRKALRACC
# [46] = Compound concentration 1000.0 nM
# [47] = Compound concentration 100.0 nM
# Serine/threonine-protein kinase B-raf (Homo sapiens), P15056 [V600E], sequence (P15056 whole entry V600E): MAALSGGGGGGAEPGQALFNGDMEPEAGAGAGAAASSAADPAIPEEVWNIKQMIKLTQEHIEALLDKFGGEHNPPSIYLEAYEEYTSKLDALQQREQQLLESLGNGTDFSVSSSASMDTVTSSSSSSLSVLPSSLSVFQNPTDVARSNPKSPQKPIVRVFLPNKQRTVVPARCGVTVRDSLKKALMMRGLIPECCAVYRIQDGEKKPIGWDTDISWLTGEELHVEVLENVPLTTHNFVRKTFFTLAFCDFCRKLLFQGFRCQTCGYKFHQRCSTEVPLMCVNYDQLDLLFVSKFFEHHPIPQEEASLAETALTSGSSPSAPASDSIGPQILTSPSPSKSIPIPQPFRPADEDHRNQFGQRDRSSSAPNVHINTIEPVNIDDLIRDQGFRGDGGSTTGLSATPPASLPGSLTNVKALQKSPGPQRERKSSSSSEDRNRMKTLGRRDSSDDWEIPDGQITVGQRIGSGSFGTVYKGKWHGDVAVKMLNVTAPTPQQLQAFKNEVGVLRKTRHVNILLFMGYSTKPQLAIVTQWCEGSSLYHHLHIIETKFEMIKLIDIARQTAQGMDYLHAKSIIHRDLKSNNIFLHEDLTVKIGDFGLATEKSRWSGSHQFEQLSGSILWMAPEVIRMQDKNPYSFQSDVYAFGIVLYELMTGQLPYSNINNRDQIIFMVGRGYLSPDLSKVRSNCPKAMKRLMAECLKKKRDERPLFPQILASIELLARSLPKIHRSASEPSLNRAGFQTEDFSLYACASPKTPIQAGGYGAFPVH
compound,measurement,setting,value
C[C@H](NC(=O)Nc1cc2[nH]ncc2c(CO)n1)c1ccccn1 [ERKi-NC],residual activity,[1]; [46],72.8%
same,residual activity,[2]; [46],100%
same,residual activity,[3]; [46],100%
same,residual activity,[4]; [46],100%
same,residual activity,[5]; [46],96.1%
same,residual activity,[6]; [46],100%
same,residual activity,[7]; [46],57.6%
same,residual activity,[8]; [46],100%
same,residual activity,[9]; [46],100%
same,residual activity,[10]; [46],50%
same,residual activity,[11]; [46],100%
same,residual activity,[12]; [46],84.7%
same,residual activity,[13]; [46],88.8%
same,residual activity,[14]; [46],100%
same,residual activity,[15]; [46],100%
same,residual activity,[16]; [46],77.2%
same,residual activity,[17]; [46],85.2%
same,residual activity,[18]; [46],100%
same,residual activity,[19]; [46],83.9%
same,residual activity,[20]; [46],100%
same,residual activity,[21]; [46],96.9%
same,residual activity,[22]; [46],100%
same,residual activity,[23]; [46],100%
same,residual activity,[24]; [46],76.6%
same,residual activity,[25]; [46],84.3%
same,residual activity,[26]; [46],100%
same,residual activity,[27]; [46],86.3%
same,residual activity,[28]; [46],100%
same,residual activity,[29]; [46],100%
same,residual activity,[30]; [46],91.5%
same,residual activity,[31]; [46],100%
same,residual activity,[32]; [46],100%
same,residual activity,[33]; [46],100%
same,residual activity,[34]; [46],100%
same,residual activity,[35]; [46],100%
same,residual activity,[36]; [46],97.4%
same,residual activity,[37]; [46],94%
same,residual activity,[38]; [46],100%
same,residual activity,[39]; [46],97.3%
same,residual activity,[40]; [46],100%
same,residual activity,[41]; [46],86.8%
same,residual activity,[42]; [46],99%
same,residual activity,[43]; [46],100%
same,residual activity,[44]; [46],74%
same,inhibition,[45],16.6%
C[C@@H](NC(=O)Nc1cc2[nH]ncc2c(CO)n1)c1ccccc1 [ERKi],residual activity,[1]; [47],87%
same,residual activity,[2]; [47],100%
same,residual activity,[3]; [47],75.2%
same,residual activity,[4]; [47],75.7%
same,residual activity,[5]; [47],95.1%
same,residual activity,[6]; [47],95.8%
same,residual activity,[7]; [47],95.9%
same,residual activity,[8]; [47],95.7%
same,residual activity,[9]; [47],86.7%
same,residual activity,[10]; [47],1%
same,residual activity,[11]; [47],95.2%
same,residual activity,[12]; [47],98.3%
same,residual activity,[13]; [47],100%
same,residual activity,[14]; [47],100%
same,residual activity,[15]; [47],85.3%
same,residual activity,[16]; [47],100%
same,residual activity,[17]; [47],100%
same,residual activity,[18]; [47],88%
same,residual activity,[19]; [47],85.6%
same,residual activity,[20]; [47],79.5%
same,residual activity,[21]; [47],92.5%
same,residual activity,[22]; [47],84.5%
same,residual activity,[23]; [47],90.5%
same,residual activity,[24]; [47],100%
same,residual activity,[25]; [47],97.6%
same,residual activity,[26]; [47],88.7%
same,residual activity,[27]; [47],100%
same,residual activity,[28]; [47],78.8%
same,residual activity,[29]; [47],95%
same,residual activity,[30]; [47],77%
same,residual activity,[31]; [47],85%
same,residual activity,[32]; [47],75%
same,residual activity,[33]; [47],92.6%
same,residual activity,[34]; [47],100%
same,residual activity,[35]; [47],91.6%
same,residual activity,[36]; [47],62.5%
same,residual activity,[37]; [47],85.7%
same,residual activity,[38]; [47],91.1%
same,residual activity,[39]; [47],88.4%
same,residual activity,[40]; [47],73%
same,residual activity,[41]; [47],71.2%
same,residual activity,[42]; [47],94.6%
same,residual activity,[43]; [47],90.8%
same,residual activity,[44]; [47],100%
same,inhibition,[45],-1%
